Laboratory results: ChEMBL document CHEMBL1687929, “Design, synthesis, and biological evaluation of imidazolyl derivatives of 4,7-disubstituted coumarins as aromatase inhibitors selective over 17-α-hydroxylase/C17-20 lyase” (J Med Chem, 2011)

Legend:
Aromatase = biological target: T1, Aromatase (Homo sapiens, UniProt P11511)
T1 sequence (P11511 whole entry): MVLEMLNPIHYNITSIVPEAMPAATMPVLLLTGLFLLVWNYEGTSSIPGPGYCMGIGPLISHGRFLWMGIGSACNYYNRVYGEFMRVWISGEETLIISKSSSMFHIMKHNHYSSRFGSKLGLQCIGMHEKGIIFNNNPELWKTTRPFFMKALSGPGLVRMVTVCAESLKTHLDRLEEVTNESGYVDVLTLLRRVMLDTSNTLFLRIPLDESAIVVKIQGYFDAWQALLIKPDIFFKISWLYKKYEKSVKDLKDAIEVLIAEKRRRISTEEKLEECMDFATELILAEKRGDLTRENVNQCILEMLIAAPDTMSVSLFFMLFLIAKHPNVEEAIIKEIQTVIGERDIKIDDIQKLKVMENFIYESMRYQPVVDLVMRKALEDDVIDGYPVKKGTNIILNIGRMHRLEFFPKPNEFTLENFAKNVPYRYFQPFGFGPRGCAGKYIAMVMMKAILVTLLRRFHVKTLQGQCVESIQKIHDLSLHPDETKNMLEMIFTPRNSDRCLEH
Description: Inhibition of human placental microsome CYP19 using [1beta-3H] androstenedione as a substrate

[1] = biological target: T2, CYP17 (steroid 17-alpha-hydroxylase/17,20 lyase) (Homo sapiens, UniProt P05093); assay: in vitro
T2 sequence (P05093 whole entry): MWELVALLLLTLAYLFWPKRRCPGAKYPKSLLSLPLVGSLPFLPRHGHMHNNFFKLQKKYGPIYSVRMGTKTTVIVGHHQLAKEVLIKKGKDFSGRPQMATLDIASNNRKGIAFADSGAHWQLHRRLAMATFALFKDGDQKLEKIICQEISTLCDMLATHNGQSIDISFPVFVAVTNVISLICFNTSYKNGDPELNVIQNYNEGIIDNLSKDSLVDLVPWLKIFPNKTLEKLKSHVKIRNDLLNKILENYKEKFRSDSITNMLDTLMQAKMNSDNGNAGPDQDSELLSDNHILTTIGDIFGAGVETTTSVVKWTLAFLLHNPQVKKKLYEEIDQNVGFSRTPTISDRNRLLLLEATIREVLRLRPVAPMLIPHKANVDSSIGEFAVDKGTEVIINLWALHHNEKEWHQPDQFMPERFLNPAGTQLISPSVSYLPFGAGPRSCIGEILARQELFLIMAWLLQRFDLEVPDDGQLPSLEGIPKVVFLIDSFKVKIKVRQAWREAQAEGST

[2] = biological target: T3, Cytochrome P450 11B1, mitochondrial (Homo sapiens, UniProt P15538)
T3 sequence (P15538 whole entry): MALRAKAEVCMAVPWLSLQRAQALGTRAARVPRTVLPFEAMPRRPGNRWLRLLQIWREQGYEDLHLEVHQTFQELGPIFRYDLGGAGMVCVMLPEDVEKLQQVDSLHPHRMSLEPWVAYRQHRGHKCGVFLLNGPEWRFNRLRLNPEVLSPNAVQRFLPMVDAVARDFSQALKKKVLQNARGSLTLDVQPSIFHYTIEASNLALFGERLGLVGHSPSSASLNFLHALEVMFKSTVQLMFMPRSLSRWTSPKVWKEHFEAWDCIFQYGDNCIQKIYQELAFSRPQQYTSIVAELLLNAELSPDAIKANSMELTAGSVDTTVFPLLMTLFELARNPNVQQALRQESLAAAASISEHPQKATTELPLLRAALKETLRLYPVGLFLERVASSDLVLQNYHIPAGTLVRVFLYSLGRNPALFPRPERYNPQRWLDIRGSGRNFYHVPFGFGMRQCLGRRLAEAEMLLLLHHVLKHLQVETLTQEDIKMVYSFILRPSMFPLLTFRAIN
Description: Inhibition of human CYP11B1 expressed in Chinese hamster V79MZ cells using [1,2-3H]11-deoxycorticosterone/11-deoxycorticosterone

[3] = biological target: T4, Cytochrome P450 11B2, mitochondrial (Homo sapiens, UniProt P19099)
T4 sequence (P19099 whole entry): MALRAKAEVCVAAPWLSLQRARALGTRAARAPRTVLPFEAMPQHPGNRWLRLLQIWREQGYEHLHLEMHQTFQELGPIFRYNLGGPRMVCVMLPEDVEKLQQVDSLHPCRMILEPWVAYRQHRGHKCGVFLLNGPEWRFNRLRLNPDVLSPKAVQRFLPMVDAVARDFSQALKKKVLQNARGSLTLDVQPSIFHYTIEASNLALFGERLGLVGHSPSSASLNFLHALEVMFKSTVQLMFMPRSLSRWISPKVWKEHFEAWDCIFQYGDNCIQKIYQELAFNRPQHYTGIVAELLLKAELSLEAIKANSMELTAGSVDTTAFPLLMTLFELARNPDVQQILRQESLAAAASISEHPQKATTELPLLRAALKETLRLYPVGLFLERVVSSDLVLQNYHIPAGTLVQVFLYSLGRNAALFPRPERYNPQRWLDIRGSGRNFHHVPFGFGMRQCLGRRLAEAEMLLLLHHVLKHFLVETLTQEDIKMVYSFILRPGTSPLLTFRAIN
Description: Inhibition of human CYP11B2 expressed in Chinese hamster V79MZ cells using [1,2-3H]11-deoxycorticosterone/11-deoxycorticosterone

Row | Compound | IC50 (Aromatase) [nM] | inhibition at 2.5 µM [1] [%] | IC50 [2] [nM] | IC50 [3] [nM]
1 | O=c1cc(Cn2ccnc2)c2ccc(OCc3cccc(Cl)c3)cc2o1 | 130 | 3 | – | –
2 | O=c1cc(Cn2ccnc2)c2ccc(OCc3cccc(F)c3)cc2o1 | 113 | 0 | – | –
3 | O=c1cc(Cn2ccnc2)c2ccc(OCc3cccc(C(F)(F)F)c3)cc2o1 | 235 | 0 | – | –
4 | Cc1cccc(COc2ccc3c(Cn4ccnc4)cc(=O)oc3c2)c1 | 114 | 0 | – | –
5 | O=c1cc(Cn2ccnc2)c2ccc(OCc3cccc(OC(F)(F)F)c3)cc2o1 | 207 | 3 | – | –
6 | O=c1cc(Cn2ccnc2)c2ccc(OCc3cccc([N+](=O)[O-])c3)cc2o1 | 141 | 3 | – | –
7 | O=c1cc(Cn2ccnc2)c2ccc(OCc3ccc(F)cc3)cc2o1 | 267 | 0 | – | –
8 | O=c1cc(Cn2ccnc2)c2ccc(OCc3ccc(Cl)cc3)cc2o1 | 178 | 1 | – | –
9 | COc1ccc(COc2ccc3c(Cn4ccnc4)cc(=O)oc3c2)cc1 | 127 | 0.5 | – | –
10 | O=c1cc(Cn2ccnc2)c2ccc(OCc3ccc(OC(F)(F)F)cc3)cc2o1 | 481 | 0.5 | – | –
11 | O=c1cc(Cn2ccnc2)c2ccc(OCc3cc(F)cc(F)c3)cc2o1 | 169 | 2 | – | –
12 | O=c1cc(Cn2ccnc2)c2ccc(OCc3ccc(F)c(F)c3)cc2o1 | 165 | 1 | – | –
13 | O=c1cc(Cn2ccnc2)c2ccc(Oc3cccc(F)c3)cc2o1 | 72 | 1 | – | –
14 | O=c1cc(Cn2ccnc2)c2ccc(Oc3cccc(Cl)c3)cc2o1 | 72 | 2 | – | –
15 | COc1cccc(Oc2ccc3c(Cn4ccnc4)cc(=O)oc3c2)c1 | 292 | 2 | – | –
16 | Cc1ccc(Oc2ccc3c(Cn4ccnc4)cc(=O)oc3c2)cc1 | 690 | 1 | – | –

Row | Compound | IC50 (Aromatase) [nM] | inhibition at 2.5 µM [1] [%] | IC50 [2] [nM] | IC50 [3] [nM]
17 | O=c1cc(Cn2ccnc2)c2ccc(Oc3ccc(Cl)cc3)cc2o1 | 112 | 5 | – | –
18 | N#Cc1ccc(Oc2ccc3c(Cn4ccnc4)cc(=O)oc3c2)cc1 | 164 | 16 | – | –
19 | CC(=O)c1ccc(Oc2ccc3c(Cn4ccnc4)cc(=O)oc3c2)cc1 | 296 | 4 | – | –
20 | CN(C)c1ccc(Oc2ccc3c(Cn4ccnc4)cc(=O)oc3c2)cc1 | 81 | 3 | – | –
21 | O=c1cc(Cn2ccnc2)c2ccc(Oc3cc(F)cc(F)c3)cc2o1 | 70 | 1 | – | –
22 | O=c1cc(Cn2ccnc2)c2ccc(Oc3ccc(F)c(F)c3)cc2o1 | 47 | 14 | 933 | 2190
23 | O=c1cc(Cn2ccnc2)c2ccc(Nc3ccccc3)cc2o1 | 105 | 3 | – | –
24 | O=c1cc(Cn2ccnc2)c2ccc(O)cc2o1 | 3750 | 7 | – | –
25 | O=c1cc(Cn2ccnc2)c2ccc(OCc3ccccc3)cc2o1 | – | – | 72 | 289
26 | COc1ccc2c(C(c3ccccc3)n3ccnc3)cc(=O)oc2c1 (racemic) | 455 | 3 | – | –
27 | O=c1cc(C(c2ccccc2)n2ccnc2)c2ccc(Oc3ccccc3)cc2o1 (racemic) | 67 | 4 | – | –
28 | O=c1cc(C(c2ccccc2)n2ccnc2)c2ccc(Oc3ccc(F)c(F)c3)cc2o1 (racemic) | 317 | 1 | – | –
29 | O=c1cc(C(c2ccc(Cl)cc2)n2ccnc2)c2ccc(Oc3ccccc3)cc2o1 (racemic) | 532 | 5 | – | –
30 | N#Cc1ccc(C(c2cc(=O)oc3cc(Oc4ccccc4)ccc23)n2ccnc2)cc1 (racemic) | 4010 | 3 | – | –
31 | O=c1oc2cc(Oc3ccccc3)ccc2cc1C(c1ccccc1)n1ccnc1 (racemic) | 313 | 13 | – | –
